Among the data in patent US8828908B2, “Herbicidally active bicyclic 1,3-dione compounds” (Syngenta Limited, priority 2007, dated 2014) are pest or weed control values, retold here.

Type in all cases: in vivo
For assay [1], the system named is Echinochloa crus-galli (ECHCG). Put plainly: Example B post-emergence herbicidal greenhouse test. To be noted: 360 h, evaluated after 15 days, 100=total damage to plant, 0=no damage. As for the experimental part: (§1) Seeds of a variety of test species were sown in standard soil in pots. After cultivation for one day (pre-emergence) or after 10 days cultivation (post-emergence) under controlled conditions in a glasshouse, the plants were sprayed with an aqueous spray solution derived from the formulation of the technical active ingredient in 0.6 ml acetone and 45 ml formulation solution containing 10.6% Emulsogen EL (Registry number 61791-12-6), 42.2% N-methylpyrrolidone, 42.2% dipropylene glycol monomethyl ether (Registry number 34590-94-8) and 0.2% X-77 (Registry number 11097-66-8). The test plants were then grown in a greenhouse under optimum conditions until, 15 days later for post-emergence and 20 days for pre-emergence, the test was evaluated (100=total damage to plant; 0=no damage to plant).
(§2) Alopecurus myosuroides (ALOMY), Avena fatua (AVEFA), Lolium perenne (LOLPE), Setaria faberi (SETFA), Digitaria sanguinalis (DIGSA), Echinochloa crus-galli (ECHCG)

The test system of assay [2] is Lolium perenne (LOLPE). The description is as above. To be noted: 360 h, evaluated after 15 days, 100=total damage to plant, 0=no damage. As for the experimental part: as §1, §2
The test system of assay [3] is Setaria faberi (SETFA). Described as above. To be noted: 360 h, evaluated after 15 days, 100=total damage to plant, 0=no damage. How it is done:
as §1, §2

Assay [4] deals with Avena fatua (AVEFA). The description is as above. To be noted: 360 h, evaluated after 15 days, 100=total damage to plant, 0=no damage. How it is done: as §1, §2
For assay [5], the system named is Digitaria sanguinalis (DIGSA). The description is as above. To be noted: 360 h, evaluated after 15 days, 100=total damage to plant, 0=no damage. How it is done: as §1, §2
The test system of assay [6] is Alopecurus myosuroides (ALOMY). The assay is described as above. To be noted: 360 h, evaluated after 15 days, 100=total damage to plant, 0=no damage. How it is done:
as §1, §2

Assay [7] has as its system Echinochloa crus-galli (ECHCG). The assay can be described thus: Example B pre-emergence herbicidal greenhouse test. To be noted: 480 h, evaluated after 20 days, 100=total damage to plant, 0=no damage. How it is done: as §1, §2
In assay [8] the test system is Lolium perenne (LOLPE). The assay can be described thus: Example B pre-emergence herbicidal greenhouse test. To be noted: 480 h, evaluated after 20 days, 100=total damage to plant, 0=no damage. As for the experimental part:
as §1, §2

Assay [9] has as its system Setaria faberi (SETFA). The assay can be described thus: Example B pre-emergence herbicidal greenhouse test. To be noted: 480 h, evaluated after 20 days, 100=total damage to plant, 0=no damage. How it is done: as §1, §2
Assay [10] concerns Avena fatua (AVEFA). Put plainly: Example B pre-emergence herbicidal greenhouse test. To be noted: 480 h, evaluated after 20 days, 100=total damage to plant, 0=no damage. As for the experimental part: as §1, §2
Assay [11] relates to Digitaria sanguinalis (DIGSA). Put plainly: Example B pre-emergence herbicidal greenhouse test. To be noted: 480 h, evaluated after 20 days, 100=total damage to plant, 0=no damage. How it is done: as §1, §2
In assay [12] the test system is Alopecurus myosuroides (ALOMY). Put plainly: Example B pre-emergence herbicidal greenhouse test. To be noted: 480 h, evaluated after 20 days, 100=total damage to plant, 0=no damage. As for the experimental part: as §1, §2
Assay [13] concerns Echinochloa crus-galli (ECHCG). Put plainly: Example A pre-emergence herbicidal glasshouse test. To be noted: 312 h, Rate 250 g/ha, evaluated after 13 days, 100=total damage to plant, 0=no damage to plant. How it is done: (§3) Seeds of a variety of test species were sown in standard soil in pots. After cultivation for one day (pre-emergence) or after 8 days cultivation (post-emergence) under controlled conditions in a glasshouse (at 24/16° C., day/night; 14 hours light; 65% humidity), the plants were sprayed with an aqueous spray solution derived from the formulation of the technical active ingredient in acetone/water (50:50) solution containing 0.5% Tween 20 (polyoxyethelyene sorbitan monolaurate, CAS RN 9005-64-5). The test plants were then grown in a glasshouse under controlled conditions in a glasshouse (at 24/16° C., day/night; 14 hours light; 65% humidity) and watered twice daily. After 13 days for pre and post-emergence, the test was evaluated (100=total damage to plant; 0=no damage to plant).
(§4) Alopecurus myosuroides (ALOMY), Avena fatua (AVEFA), Setaria faberi (SETFA), Echinochloa crus-galli (ECHCG), Solanum nigrum (SOLNI) and Amaranthus retroflexus (AMARE)

In assay [14] the test system is Setaria faberi (SETFA). The assay can be described thus: Example A pre-emergence herbicidal glasshouse test. To be noted: 312 h, Rate 250 g/ha, evaluated after 13 days, 100=total damage to plant, 0=no damage to plant. How it is done: as §3, §4
The test system of assay [15] is Amaranthus retroflexus (AMARE). Put plainly: Example A pre-emergence herbicidal glasshouse test. To be noted: 312 h, Rate 250 g/ha, evaluated after 13 days, 100=total damage to plant, 0=no damage to plant. How it is done: as §3, §4
The subject of assay [16] is Avena fatua (AVEFA). Put plainly: Example A pre-emergence herbicidal glasshouse test. To be noted: 312 h, Rate 250 g/ha, evaluated after 13 days, 100=total damage to plant, 0=no damage to plant. As for the experimental part: as §3, §4
The test system of assay [17] is Alopecurus myosuroides (ALOMY). The assay can be described thus: Example A pre-emergence herbicidal glasshouse test. To be noted: 312 h, Rate 250 g/ha, evaluated after 13 days, 100=total damage to plant, 0=no damage to plant. How it is done:
as §3, §4

Assay [18] has as its system Echinochloa crus-galli (ECHCG). The assay can be described thus: Example A post-emergence herbicidal glasshouse test. To be noted: 312 h, evaluated after 13 days, 100=total damage to plant, 0=no damage. As for the experimental part:
as §3, §4

The subject of assay [19] is Setaria faberi (SETFA). Described as above. To be noted: 312 h, evaluated after 13 days, 100=total damage to plant, 0=no damage. How it is done: as §3, §4
The subject of assay [20] is Amaranthus retroflexus (AMARE). The assay is described as above. To be noted: 312 h, evaluated after 13 days, 100=total damage to plant, 0=no damage. How it is done:
as §3, §4

Assay [21] concerns Avena fatua (AVEFA). The assay is described as above. To be noted: 312 h, evaluated after 13 days, 100=total damage to plant, 0=no damage. As for the experimental part: as §3, §4
For assay [22], the system named is Alopecurus myosuroides (ALOMY). The description is as above. To be noted: 312 h, evaluated after 13 days, 100=total damage to plant, 0=no damage. How it is done: as §3, §4

With `CCc1ccc(-c2ccccc2)cc1C1=C(O)[C@H]2CC[C@H](C2)C1=O` (single isomer, unassigned) [Compound T2], the pest or weed control at 125 g/ha in [1] stood at 60%; in [2] it was 0%; in assay [3], 30%; in [4] it was 0%; in assay [5] it was 0%; in assay [6], 10%. The pest or weed control at 250 g/ha in assay [7] is 100%; in assay [8], 10%; in [9], 0%; in assay [10] it was 20%; in assay [11] it was 0%; in [12] it was 0%.
As for `Cc1ccc(-c2cccc(Cl)c2)cc1C1=C(O)[C@H]2CC[C@H](C2)C1=O` (single isomer, unassigned) [Compound T7], the pest or weed control at 125 g/ha in [1], in assay [2], in assay [3], in assay [4], in assay [5] and in [6] was 0% throughout. Besides, the pest or weed control at 250 g/ha in [7] was determined as 0%; in assay [8] it was 0%; in assay [9], 10%; in assay [10], 10%; in [11] it was 20%; in assay [12], 0%.
As for `Cc1ccc(-c2ccc(Cl)c(C(F)(F)F)c2)cc1C1=C(O)[C@H]2CC[C@H](C2)C1=O` (single isomer, unassigned) [Compound T8], the pest or weed control at 125 g/ha in [1] was found to be 0%; in assay [2], 0%; in [3] it was 30%; in [4] it was 0%; in assay [5] it was 30%; in assay [6], 10%. Besides, the pest or weed control at 250 g/ha in [7] came out at 100%; in [8] it was 50%; in assay [9], 70%; in [10] it was 30%; in assay [11], 70%; in [12], 50%.
Take `Cc1ccc(-c2ccc(Cl)c(Cl)c2)cc1C1=C(O)[C@H]2CC[C@H](C2)C1=O` (single isomer, unassigned) [Compound T10]: the pest or weed control at 125 g/ha in [1] is 0%; in [2], 20%; in assay [3] it was 0%; in assay [4], 10%; in assay [5], 0%; in assay [6] it was 10%. The pest or weed control at 250 g/ha is 50% in assay [7]; 20% in assay [8]; 80% in [9]; 0% in assay [10]; 30% in assay [11]; 50% in assay [12].
Turning to `COc1cc(Cl)ccc1-c1ccc(C)c(C2=C(O)[C@H]3CC[C@H](C3)C2=O)c1` (single isomer, unassigned) [Compound T11], the pest or weed control at 125 g/ha in [1] was found to be 20%; in assay [2], 0%; in [3] it was 10%; in assay [4], 20%; in assay [5], 0%; in [6] it was 20%. Also, the pest or weed control at 250 g/ha in assay [7] was 10%; in assay [8], 10%; in assay [9], 10%; in [10] it was 0%; in assay [11], 0%; in assay [12] it was 10%.
For `Cc1ccc(-c2ccc(Cl)cc2Cl)cc1C1=C(O)[C@H]2CC[C@H](C2)C1=O` (single isomer, unassigned) [Compound T12], the pest or weed control at 125 g/ha in assay [1] came out at 70%; in assay [2], 0%; in [3] it was 80%; in [4], 10%; in [5] it was 60%; in [6] it was 0%. The pest or weed control at 250 g/ha in assay [7] came out at 40%; in assay [8] it was 70%; in [9] it was 60%; in assay [10], 40%; in assay [11] it was 100%; in [12] it was 30%.
As to `Cc1cc(-c2ccc(C)c(C3=C(O)[C@H]4CC[C@H](C4)C3=O)c2)ccc1Cl` (single isomer, unassigned) [Compound T24], the pest or weed control at 125 g/ha turned out to be 30% in assay [1], 0% in assay [3] and 0% in [5]. The pest or weed control at 250 g/ha in [7] amounted to 80%; in [8], 10%; in assay [9] it was 20%; in assay [10], 0%; in assay [11], 70%; in assay [12] it was 40%.
For `Cc1ccc(-c2ccc(Cl)c(C#N)c2)cc1C1=C(O)[C@H]2CC[C@H](C2)C1=O` (single isomer, unassigned) [Compound T25], the pest or weed control at 125 g/ha in [1] is 0%; in [2] it was 0%; in assay [3], 30%; in assay [4], 0%; in assay [5], 80%; in [6], 20%. The pest or weed control at 250 g/ha in assay [7] was found to be 50%; in [8], 20%; in assay [9], 80%; in [10] it was 0%; in assay [11], 80%; in assay [12] it was 0%.
On to `CCc1ccc(-c2ccc(Cl)cc2F)cc1C1=C(O)[C@H]2C=C[C@H](CC2)C1=O` [Compound T57, 3-(4′-chloro-4-ethyl-2′-fluorobiphen-3-yl)bicyclo[3.2.2]non-6-ene-2,4-dione], for which the pest or weed control at 250 g/ha stood at 50% in [13]; 90% in assay [14]; 0% in [15]; 0% in assay [16]; 0% in assay [17]; 100% in assay [18]. Moreover, the pest or weed control at 250 g/ha in assay [19] is 100%; in assay [20], 0%; in assay [21], 40%; in assay [22] it was 30%.
With `CCc1ccc(-c2ccc(Cl)cc2)cc1C1=C(O)C2CC(C1=O)C2(C)C` (centres unmarked) [Compound T69, 3-(4′-chloro-4-ethylbiphen-3-yl)-6,6-dimethylbicyclo[3.1.1]heptane-2,4-dione], the pest or weed control at 250 g/ha was determined as 100% in assay [13]; 90% in assay [14]; 0% in assay [15]; 0% in [16]; 20% in [17]; 100% in assay [18]. In addition, the pest or weed control at 250 g/ha in [19] stood at 100%; in assay [20], 0%; in assay [21], 80%; in [22] it was 70%.

Broadly, the pest or weed control is how far the test organism was held down. A higher pest or weed control goes with a strong effect.
